These are literature values, as cited in the CATMoS acute toxicity set (Mansouri et al. 2021).

What is called LD50 is the dose at which mortality reaches 50%.

Where “and” joins values, the source holds several entries; their conditions need not be identical. Equal entries are not always repeated.

A short description of this series: rat acute oral toxicity. As to conditions: in vivo.
Turning to `Cl[C@H]1[C@H](Cl)[C@@H](Cl)[C@H](Cl)[C@@H](Cl)[C@@H]1Cl` (racemic), the LD50 was 6000 mg/kg.
Regarding `O=NN(CCCl)C(=O)NCCS(=O)(=O)NCc1ccccc1`, the LD50 was 250 mg/kg.
As to `CC(C)OP(=S)(CCl)Sc1ccc(Cl)cc1` (configuration not stated), the LD50 is 26 mg/kg.
As to `CN(N=O)C(=O)C(=O)N(C)N=O`, the LD50 is 96 mg/kg.
Regarding `N#CCCC1CN2CCc3cc4c(cc3C2CC1=O)OCO4` (configuration not stated), the LD50 is 1410 mg/kg.
Regarding `COC(=O)C(Cl)Cc1ccc(Cl)cc1` (configuration not stated), the median lethal dose (LD50) was 1070 mg/kg.
In the case of `O=C(CCC1CCN(Cc2ccccc2)CC1)c1ccc2c(c1)NCCCC2`, the 50% lethal dose (LD50) was 334 mg/kg.
With `CN(C)C(=O)CCNc1ccc(Br)cc1`, the LD50 is 1810 mg/kg.
For the compound `O=C(O)/C=C/c1ccc(Cn2ccnc2)cc1`, the 50% lethal dose (LD50) is 4160 mg/kg.
Take `Nc1ccc2[nH]c3c(c2c1)CCCC3`: the LD50 was 374 mg/kg.
`CC(=O)C=Cc1ccccc1`: the LD50 is 2030 mg/kg.
On to `CCC(C)(N)C#N` (configuration not stated), for which the 50% lethal dose (LD50) is 74 mg/kg.
For the compound `CCC(=C(c1ccc(OCCN(C)C)cc1)c1ccc(OP(=O)(O)O)cc1)c1ccc(C(C)C)cc1`, the LD50 is 785 mg/kg.
With `COc1ccnc(CS(=O)c2nc3cc(OC(F)F)ccc3[nH]2)c1OC` (configuration not stated), the LD50 is 747 mg/kg.
On to `CCCCCCCCCCCCCCCCCC(=O)OCCCC`, for which the median lethal dose (LD50) is 32000 mg/kg.
As to `CN(C)CCOc1ccc(/C(=C(/CCCl)c2ccccc2)c2ccccc2)cc1`, the median lethal dose (LD50) is 1700 mg/kg and 3000 mg/kg.
Take `CC(=O)OC(C)OC(=O)C(C)c1ccc(-c2ccccc2)c(F)c1` (configuration not stated): the LD50 was 66 mg/kg.
For the compound `O=c1n(CCCN2CCN(c3cccc(Cl)c3)CC2)nc2ccccn12`, the LD50 was 690 mg/kg.
Turning to `CCOC(C1=NCCCN1)c1c(Cl)cccc1Cl` (configuration not stated), the LD50 is 625 mg/kg.
For the compound `COCC(C)N(C(=O)CCl)c1c(C)csc1C` (configuration not stated), the LD50 was 397 mg/kg.
In the case of `CC(O)C(=O)O` (configuration not stated), the LD50 was 2100 mg/kg.
`O=NN1CCCCCCCC1`: the 50% lethal dose (LD50) was 566 mg/kg.
Regarding `CCC(C)C(=O)OC1C(OC(C)=O)c2c(ccc3ccc(=O)oc23)OC1(C)C` (configuration not stated), the LD50 was 1210 mg/kg.
As to `CSc1ncnc2c1ncn2C1OC(CO)C(O)C1O` (configuration not stated), the 50% lethal dose (LD50) is 214 mg/kg.
With `C[Si](C)(C)N=C=N[Si](C)(C)C`, the median lethal dose (LD50) is 1730 mg/kg.
For `CN(C)c1ccc(Cn2cnc3c2c(=O)n(C)c(=O)n3C)cc1`, the LD50 is 1100 mg/kg.
With `CNC(=O)Oc1ccccc1C(OC)OC`, the 50% lethal dose (LD50) is 160 mg/kg.
For the compound `CNC(=O)ON=C1SCCOC1C` (configuration not stated), the median lethal dose (LD50) was 6 mg/kg.
As for `O=C1CCC(N2C(=O)c3ccccc3C2=O)C(=O)N1` (configuration not stated), the 50% lethal dose (LD50) is 113 mg/kg.
In the case of `C=CCc1ccc2c(c1)OCO2`, the LD50 was 1950 mg/kg.
Turning to `COP(=S)(OC)Oc1ccc([N+](=O)[O-])c(C(F)(F)F)c1`, the median lethal dose (LD50) was 250 mg/kg.
For `CNC(=O)O/N=C/C(C)(C)S(C)=O` (configuration not stated), the median lethal dose (LD50) was 0.49 mg/kg.
`C/C(=C\C(C)CC(C)CC(C)C)C1CC(=O)OC1=O` (configuration not stated): the LD50 was 2550 mg/kg.
On to `CCOc1ccc(C(=O)COC(=O)CCC(=O)O)c2ccccc12`, for which the 50% lethal dose (LD50) is 3500 mg/kg.
On to `COC(=O)[C@H]1[C@H]2C[C@@H]3c4[nH]c5cc(OC)ccc5c4CCN3C[C@H]2C[C@@H](OC(=O)C=Cc2cc(OC)c(OC)c(OC)c2)[C@@H]1OC`, for which the LD50 was 1000 mg/kg.
On to `Nc1ccc(N)cc1`, for which the LD50 was 80 mg/kg and 147 mg/kg.
Regarding `CCCCC(CC)COC(C[n+]1ccccc1)c1ccc(C2CCCCC2)cc1` (configuration not stated), the LD50 is 250 mg/kg.
As for `FC(F)(F)c1nc2c(Cl)ccc(Cl)c2[nH]1`, the 50% lethal dose (LD50) is 2.61 mg/kg.
For `CC(C)CCOC(=S)S`, the LD50 is 765 mg/kg.
Regarding `CCOC(=O)OC(=O)OCC`, the LD50 was 850 mg/kg.
Consider `Cc1ccc(C2(O)CCN(CCCC(=O)c3ccc(F)cc3)CC2)cc1`, for which the LD50 was 152 mg/kg.
`CCCCNC(=O)OCC(O)C1COc2ccccc2O1` (configuration not stated): the LD50 is 1500 mg/kg.
For `COC(=O)CCBr`, the LD50 is 1600 mg/kg.
Turning to `COCCOC(=O)C1=C(C)NC(C)=C(C(=O)OC/C=C/c2ccccc2)C1c1cccc([N+](=O)[O-])c1` (configuration not stated), the LD50 is 4410 mg/kg.
`CCN(CCCl)c1ccccc1`: the LD50 is 616 mg/kg.
As to `CS(=O)CC(=O)c1ccccn1` (configuration not stated), the 50% lethal dose (LD50) was 6550 mg/kg.
Turning to `CC1=C(C(=O)OCOC(=O)C(C)(C)C)N2C(=O)[C@@H](NC(=O)C(N)c3ccccc3)[C@H]2SC1` (some centres not stated), the LD50 is 4000 mg/kg.
For `CCC(CC)COC(=O)CCCCC(=O)OCC(CC)CC`, the 50% lethal dose (LD50) was 5620 mg/kg.
Regarding `CNC(=O)ON=C(SC)c1ccc(Cl)cc1`, the LD50 is 670 mg/kg.
Take `Cc1ccc(B2OCC3(CO2)COB(c2ccc(C)cc2)OC3)cc1`: the median lethal dose (LD50) is 1130 mg/kg.
Take `NCCOC(=O)c1ccccc1`: the LD50 was 9270 mg/kg.
`OCCN(CCO)c1ccccc1`: the LD50 was 980 mg/kg.
`O=Cc1ccc(O)cc1O`: the LD50 was 400 mg/kg.
As to `NC(=O)c1cc([N+](=O)[O-])cc([N+](=O)[O-])c1`, the LD50 is 1250 mg/kg.
With `CC12CCC3(CCCC(C)(C)C3C1)OC2=O` (configuration not stated), the LD50 is 1600 mg/kg.
Regarding `CCCCCCc1ccc(C(C[n+]2ccccc2)OCC(CC)CCCC)cc1` (configuration not stated), the LD50 is 250 mg/kg.
Take `CCCN1C(=O)C2C3C=C(C(O)(c4ccccc4)c4ccccn4)C(C3=C(c3ccccc3)c3ccccn3)C2C1=O` (configuration not stated): the LD50 is 34.5 mg/kg.
